{"source": "patent US5387709A", "about": "“Substituted sulfonamides, process of preparation and medicines containing same” (Lipha Lyonnaise Industrielle Pharmaceutique, priority 1990, dated 1995)", "key": {"rat aorta": {"system": "rat aorta", "test": "Inhibition of the U46619 induced rat aorta vasoconstriction", "assay_type": "cell-based", "conditions": "contraction by U46619 (142 nM), rat thoracic aorta, 37° C., read-out: VASOCONSTRICTION RAT AORTA IC 50", "description": "(B) Inhibition of the U46619 induced rat aorta vasoconstriction:\nmale rats weighing about 300 g are put to death by euthanasia; the thoracic aorta is rapidly taken out. A sample of about 1 cm is cut into a spiral, and placed in a vat containing 20 ml of nutrient medium (Krebs-Henseleit) kept a 37° C. and oxygenated (O2 95%, CO2 5%). The contractions are recorded with an isotonic strain gauge. After a rest of 45 mn, supramaximum contractions are provoked by the addition of an analogue of TXA2 (U46619: 142 nM) to the survival medium. A plateau is generally reached after 10 mn of contact, the latter not exceeding 25 mn. A rest of 30 mn and a plurality of rinses take place after each contraction. The products are added 10 mn after U46619 and allowed to rest 15 mn, after which delay the inhibition is measured. The inhibitory concentration 50 (IC) is determined for each compound studied and on a minimum of 3 aortas. The activities of the compounds of the present invention are described in example 108.\n(§1) The products of examples 1 to 107 have been tested for platelet aggregation on guinea-pig and on the contraction of the aorta in rat as described previously."}, "platelets of guinea-pig": {"system": "platelets of guinea-pig", "test": "Inhibition of the platelet aggregation induced by U46619 (BORN test), guinea-pig platelets", "assay_type": "cell-based", "conditions": "read-out: PLATELET AGGREGATION GUINEA-PIG IC 50", "source_text": "(A) Inhibition of the platelet aggregation induced by U46619, a stable analogue of TXA2 (9,11-dideoxy-11α,9α-epoxymethanoprostaglandine F2 α):\nThe tests determine a concentration of compound which inhibits at 50% (CI50) a liminar aggregation induced by U46619. The activities of the compounds of the present invention are given in example 108.\nas §1"}, "[1]": {"test": "Lethal dose 50 on the rat by intravenous injection", "conditions": "in vivo", "description": "The compounds of this invention are characterized by their absence of toxicity. By way of illustration, for the compound described in example 20, the lethal dose 50 determined on the rat, by intravenous injection is higher than 150 mg/kg."}}, "note": "Where two headings read alike, the source gives them in different places."}
{"molecule": "O=C(O)c1ccc(CC2(CNS(=O)(=O)c3ccc(Cl)cc3)CCCC2)cc1", "note": "[Example 25, 4-[[1-[[[(4-Chlorophenyl)sulfonyl]amino]methyl]cyclopentyl]methyl]benzoic acid]", "values": [{"measurement": "IC50", "setting": "rat aorta; Rattus norvegicus", "result": 0.06, "unit": "µM"}, {"measurement": "IC50", "setting": "platelets of guinea-pig; Cavia porcellus, Platelet", "result": 1.5, "unit": "µM"}]}
{"molecule": "CCOC(=O)Cc1ccc(CC2(CNS(=O)(=O)c3ccc(Cl)cc3)CCCC2)cc1", "note": "[Example 77, Ethyl 4-[[1-[[[(4-chlorophenyl)sulfonyl]amino]methyl]cyclopentyl]methyl]benzeneacetate]", "values": [{"measurement": "IC50", "setting": "rat aorta; Rattus norvegicus", "result": "> 1", "unit": "µM"}, {"measurement": "IC50", "setting": "platelets of guinea-pig; Cavia porcellus, Platelet", "result": 2.4, "unit": "µM"}]}
{"molecule": "O=C(O)Cc1ccc(CC2(CNS(=O)(=O)c3ccco3)CCCC2)cc1", "note": "[Example 70, 4-[[1-[[[(fur-2-yl)sulfonyl]amino]methyl]cyclopentyl]methyl]benzeneacetic acid]", "values": [{"measurement": "IC50", "setting": "rat aorta; Rattus norvegicus", "result": 1, "unit": "µM"}, {"measurement": "IC50", "setting": "platelets of guinea-pig; Cavia porcellus, Platelet", "result": "> 5", "unit": "µM"}]}
{"molecule": "O=C(O)Cc1ccc(C[C@@H]2CCC[C@H]2NS(=O)(=O)c2ccccc2)cc1", "note": "(relative stereo) [Example 6, Trans-4-[[2-[[(phenyl)sulfonyl]amino]cyclopentyl]methyl]benzeneacetic acid]", "values": [{"measurement": "IC50", "setting": "rat aorta; Rattus norvegicus", "result": 0.56, "unit": "µM"}, {"measurement": "IC50", "setting": "platelets of guinea-pig; Cavia porcellus, Platelet", "result": 6.3, "unit": "µM"}]}
{"molecule": "O=C(O)Cc1ccc(CC2(CNS(=O)(=O)c3c[nH]cn3)CCCC2)cc1", "note": "[Example 69, 4-[[1-[[[(Imidazol-4-yl)sulfonyl]amino]methyl]cyclopentyl]methyl]benzeneacetic acid]", "values": [{"measurement": "IC50", "setting": "rat aorta; Rattus norvegicus", "result": "> 1", "unit": "µM"}, {"measurement": "IC50", "setting": "platelets of guinea-pig; Cavia porcellus, Platelet", "result": "> 5", "unit": "µM"}]}
{"molecule": "CS(=O)(=O)c1ccc(S(=O)(=O)NCC2(Cc3ccc(CC(=O)O)cc3)CCCC2)cc1", "note": "[Example 63, 4-[[1-[[[(4-Methylsulfonylphenyl)sulfonyl]amino]methyl]cyclopentyl]methyl]benzeneacetic acid]", "values": [{"measurement": "IC50", "setting": "rat aorta; Rattus norvegicus", "result": "> 1", "unit": "µM"}, {"measurement": "IC50", "setting": "platelets of guinea-pig; Cavia porcellus, Platelet", "result": "> 5", "unit": "µM"}]}
{"molecule": "O=S(=O)(NCC1(Cc2ccc(Cc3nnn[nH]3)cc2)CCCC1)c1ccc(Cl)cc1", "note": "[Example 81, 4-Chloro-N-[1-[[[4-[(1H-tetrazol-5-yl)methyl]phenyl]methyl]cyclopentyl]methyl]benzenesulfonamide]", "values": [{"measurement": "IC50", "setting": "rat aorta; Rattus norvegicus", "result": 0.06, "unit": "µM"}, {"measurement": "IC50", "setting": "platelets of guinea-pig; Cavia porcellus, Platelet", "result": 1.6, "unit": "µM"}]}
{"molecule": "O=C(O)Cc1ccc(C[C@@H]2CCC[C@H]2NS(=O)(=O)c2ccc(F)cc2)cc1", "note": "(relative stereo) [Example 4, Trans-4-[[2-[[(4-fluorophenyl)sulfonyl]amino]cyclopentyl]methyl]benzeneacetic acid]", "values": [{"measurement": "IC50", "setting": "rat aorta; Rattus norvegicus", "result": 0.2, "unit": "µM"}, {"measurement": "IC50", "setting": "platelets of guinea-pig; Cavia porcellus, Platelet", "result": 23, "unit": "µM"}]}
{"molecule": "Cc1cnc2c(S(=O)(=O)NCC3(Cc4ccc(CC(=O)O)cc4)CCCC3)cccc2c1", "note": "[Example 66, 4-[[1-[[[(3-Methylquinol-8-yl)sulfonyl]amino]methyl]cyclopentyl]methyl]benzeneacetic acid]", "values": [{"measurement": "IC50", "setting": "rat aorta; Rattus norvegicus", "result": "> 1", "unit": "µM"}, {"measurement": "IC50", "setting": "platelets of guinea-pig; Cavia porcellus, Platelet", "result": "> 5", "unit": "µM"}]}
{"molecule": "O=C(O)Cc1ccc(C2(CNS(=O)(=O)c3ccc(Cl)cc3)CCCCC2)cc1", "note": "[Example 29, 4-[1-[[[(4-Chlorophenyl)sulfonyl]amino]methyl]cyclohexyl]benzeneacetic acid]", "values": [{"measurement": "IC50", "setting": "rat aorta; Rattus norvegicus", "result": 1, "unit": "µM"}, {"measurement": "IC50", "setting": "platelets of guinea-pig; Cavia porcellus, Platelet", "result": 5.3, "unit": "µM"}]}
{"molecule": "O=S(=O)(O)Cc1ccc(CC2(CNS(=O)(=O)c3ccc(Cl)cc3)CCCC2)cc1", "note": "[Example 80, 4-[[1-[[[(4-Chlorophenyl)sulfonyl]amino]methyl]cyclopentyl]methyl]benzenemethanesulfonic acid]", "values": [{"measurement": "IC50", "setting": "rat aorta; Rattus norvegicus", "result": 0.19, "unit": "µM"}, {"measurement": "IC50", "setting": "platelets of guinea-pig; Cavia porcellus, Platelet", "result": 2.9, "unit": "µM"}]}
{"molecule": "O=C(O)Cc1ccc(CC2(CNS(=O)(=O)c3ccc(O)cc3)CCCC2)cc1", "note": "[Example 71, 4-[[1-[[[(4-Hydroxyphenyl)sulfonyl]amino]methyl]cyclopentyl]methyl]benzeneacetic acid]", "values": [{"measurement": "IC50", "setting": "rat aorta; Rattus norvegicus", "result": 0.04, "unit": "µM"}, {"measurement": "IC50", "setting": "platelets of guinea-pig; Cavia porcellus, Platelet", "result": 3, "unit": "µM"}]}
{"molecule": "O=C(O)Cc1ccc(C2(CNS(=O)(=O)c3ccc(Cl)cc3)CC2)cc1", "note": "[Example 12, 4-[1-[[[(4-Chlorophenyl)sulfonyl]amino]methyl]cyclopropyl]benzeneacetic acid]", "values": [{"measurement": "IC50", "setting": "rat aorta; Rattus norvegicus", "result": 0.07, "unit": "µM"}, {"measurement": "IC50", "setting": "platelets of guinea-pig; Cavia porcellus, Platelet", "result": 1.8, "unit": "µM"}]}
{"molecule": "Complex of sodium 4-[[1-[[[(4-chlorophenyl)sulfonyl]amino]methyl]cyclopentyl]methyl]benzeneacetate and β-cyclodextrine (1:1) [Example 23]", "values": [{"measurement": "IC50", "setting": "rat aorta", "result": 0.04, "unit": "µM"}, {"measurement": "IC50", "setting": "platelets of guinea-pig", "result": 0.48, "unit": "µM"}]}
{"molecule": "Cc1ccc(S(=O)(=O)NCC2(Cc3ccc(CC(=O)O)cc3)CCCC2)cc1", "note": "[Example 24, 4-[[1-[[[(4-methylphenyl)sulfonyl]amino]methyl]cyclopentyl]methyl]benzeneacetic acid]", "values": [{"measurement": "IC50", "setting": "rat aorta; Rattus norvegicus", "result": 0.3, "unit": "µM"}, {"measurement": "IC50", "setting": "platelets of guinea-pig; Cavia porcellus, Platelet", "result": 0.57, "unit": "µM"}]}
{"molecule": "O=C(O)Cc1ccc(CC2(CNS(=O)(=O)c3ccc(Cl)cc3)CCCCCC2)cc1", "note": "[Example 73, 4-[[1-[[[(4-Chlorophenyl]sulfonyl]amino]methyl]cycloheptyl]methyl]benzeneacetic acid]", "values": [{"measurement": "IC50", "setting": "rat aorta; Rattus norvegicus", "result": 0.2, "unit": "µM"}, {"measurement": "IC50", "setting": "platelets of guinea-pig; Cavia porcellus, Platelet", "result": 0.7, "unit": "µM"}]}
{"molecule": "O=C(O)Cc1ccc(CC2(CNS(=O)(=O)c3ccc(C(F)(F)F)cc3)CCCC2)cc1", "note": "[Example 55, 4-[[1-[[[(4-Trifluoromethylphenyl)sulfonyl]amino]methyl]cyclopentyl]methyl]benzeneacetic acid]", "values": [{"measurement": "IC50", "setting": "rat aorta; Rattus norvegicus", "result": 0.1, "unit": "µM"}, {"measurement": "IC50", "setting": "platelets of guinea-pig; Cavia porcellus, Platelet", "result": 2.9, "unit": "µM"}]}
{"molecule": "CCCCCCOc1ccc(S(=O)(=O)NCC2(Cc3ccc(CC(=O)O)cc3)CCCC2)cc1", "note": "[Example 97, 4-[[1-[[[(4-Hexyloxyphenyl)sulfonyl]amino]methyl]cyclopentyl]methyl]benzeneacetic acid]", "values": [{"measurement": "IC50", "setting": "rat aorta; Rattus norvegicus", "result": "> 1", "unit": "µM"}, {"measurement": "IC50", "setting": "platelets of guinea-pig; Cavia porcellus, Platelet", "result": 5.9, "unit": "µM"}]}
{"molecule": "O=C(O)Cc1ccc(CC2(CNS(=O)(=O)c3ccc(Cl)cc3)CCC(=O)CC2)cc1", "note": "[Example 91, 4-[[1-[[[(4-Chlorophenyl)sulfonyl]amino]methyl]-4-oxocyclohexyl]methyl]benzeneacetic acid]", "values": [{"measurement": "IC50", "setting": "rat aorta; Rattus norvegicus", "result": 1, "unit": "µM"}, {"measurement": "IC50", "setting": "platelets of guinea-pig; Cavia porcellus, Platelet", "result": 3.1, "unit": "µM"}]}
{"molecule": "Cc1ccc(S(=O)(=O)N[C@@H]2CCC[C@H]2Cc2ccc(CC(=O)O)cc2)cc1", "note": "(relative stereo) [Example 7, Trans-4-[[2-[[(4-methylphenyl)sulfonyl]amino]cyclopentyl]methyl]-benzeneacetic acid]", "values": [{"measurement": "IC50", "setting": "rat aorta; Rattus norvegicus", "result": 0.3, "unit": "µM"}, {"measurement": "IC50", "setting": "platelets of guinea-pig; Cavia porcellus, Platelet", "result": 3.3, "unit": "µM"}]}
{"molecule": "O=C(O)Cc1ccc(CC2(CNS(=O)(=O)c3ccc(F)cc3)CCCC2)cc1", "note": "[Example 16, 4-[[1-[[[(4-Fluorophenyl)sulfonyl]amino]methyl]cyclopentyl]methyl]benzeneacetic acid]", "values": [{"measurement": "IC50", "setting": "rat aorta; Rattus norvegicus", "result": 0.2, "unit": "µM"}, {"measurement": "IC50", "setting": "platelets of guinea-pig; Cavia porcellus, Platelet", "result": 2.4, "unit": "µM"}]}
{"molecule": "O=C(O)Cc1ccc(CC2(CNS(=O)(=O)c3ccc(Cl)cc3)CCCC2)cc1", "note": "[Example 20, Sodium 4-[[1-[[[(4-chlorophenyl)sulfonyl]amino]methyl]cyclopentyl]methyl]benzeneacetate]", "values": [{"measurement": "IC50", "setting": "rat aorta", "result": 0.07, "unit": "µM"}, {"measurement": "IC50", "setting": "platelets of guinea-pig", "result": 0.28, "unit": "µM"}, {"measurement": "LD50", "setting": "[1]", "result": "> 150", "unit": "mg/kg"}]}
{"molecule": "O=C(O)Cc1ccc(CC2(CNS(=O)(=O)c3ccccc3)CCCC2)cc1", "note": "[Example 15, 4-[[1-[[[(Phenyl)sulfonyl]amino]methyl]cyclopentyl]methyl]benzeneacetic acid]", "values": [{"measurement": "IC50", "setting": "rat aorta; Rattus norvegicus", "result": 0.3, "unit": "µM"}, {"measurement": "IC50", "setting": "platelets of guinea-pig; Cavia porcellus, Platelet", "result": 1.1, "unit": "µM"}]}
{"molecule": "O=C(O)Cc1cccc(CC2(CNS(=O)(=O)c3ccc(Cl)cc3)CCCC2)c1", "note": "[Example 93, 3-[[1-[[[(4-Chlorophenyl)sulfonyl]amino]methyl]cyclopentyl]methyl]benzeneacetic acid]", "values": [{"measurement": "IC50", "setting": "rat aorta; Rattus norvegicus", "result": 0.05, "unit": "µM"}, {"measurement": "IC50", "setting": "platelets of guinea-pig; Cavia porcellus, Platelet", "result": 1.6, "unit": "µM"}]}
